The values below come from patent US20210275418A1, “Personal Care Compositions” (Colgate-Palmolive Company, priority 2020, published 2021).

Holding throughout (format): biochemical
One test deals with collagenase. Briefly: Collagenase inhibition, collagenase inhibitor screening kit (Sigma Aldrich MAK 293 Kit). Here is the method:
A study of collagenase inhibition is conducted (e.g., Sigma Aldrich MAK 293 Kit) to investigate the was conducted to investigate the efficacy of an exemplary composition of the present invention (1.25% lactic acid; 0.625% mandelic acid; and 0.312% pyruvic acid) and individual short chain fatty acids, at the same concentrations.
A study of collagenase inhibition is conducted (e.g., Sigma Aldrich MAK 293 Kit) to investigate the was conducted to investigate the efficacy of an exemplary composition of the present invention (1.25% mandelic acid and 0.625% pyruvic acid) and individual short chain fatty acids, at the same concentrations.
The anti-collagenase activity of an exemplary composition of the present invention was compared to the anti-collagenase activity of individual short chain fatty acids. Assays were performed using a collagenase inhibitor screening kit from Sigma Aldrich (MAK 293 Kit); and following the manufacturer's protocol. The results of these experiments are described in Table 2 (below).
The anti-collagenase activity of an exemplary composition of the present invention was compared to the anti-collagenase activity of individual short chain fatty acids. Assays were performed using a collagenase inhibitor screening kit from Sigma Aldrich (MAK 293 Kit); and following the manufacturer's protocol. The results of these experiments are described in Table 5 (below).

The next test deals with T1, elastase (Homo sapiens, UniProt P08246).
T1 construct: purchased Sigma Aldrich MAK 213 Kit
T1 sequence (P08246 30-267): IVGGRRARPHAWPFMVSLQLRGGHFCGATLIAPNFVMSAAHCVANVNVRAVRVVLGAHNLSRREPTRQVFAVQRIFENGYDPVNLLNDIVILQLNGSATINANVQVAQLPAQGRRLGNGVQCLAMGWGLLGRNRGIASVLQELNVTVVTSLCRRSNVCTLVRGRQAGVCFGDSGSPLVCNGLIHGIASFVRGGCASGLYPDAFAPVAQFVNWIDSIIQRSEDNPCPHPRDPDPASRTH
Briefly: Elastase inhibition, elastase inhibitor screening kit (Sigma Aldrich MAK 213 Kit). As to conditions: Table 3, Example 7. Here is the method:
The anti-elastase activity of an exemplary composition of the present invention was compared to the anti-elastase activity of individual short chain fatty acids. Assays were performed using an elastase inhibitor screening kit from Sigma Aldrich (MAK 213 Kit); and following the manufacturer's protocol. The results of these experiments are described in Table 3 (below).

A further test has as its system tyrosinase. Briefly: Tyrosinase inhibition, tyrosinase inhibitor screening kit (Sigma Aldrich MAK 257 Kit). Here is the method: A study of tyrosinase inhibition is conducted (e.g., Sigma Aldrich MAK 257 Kit) to investigate the efficacy of an exemplary composition of the present invention (0.312% lactic acid; 0.156% mandelic acid; and 0.078% pyruvic acid) and individual short chain fatty acids at the same concentrations.
A study of tyrosinase inhibition is conducted (e.g., Sigma Aldrich MAK 257 Kit) to investigate the efficacy of an exemplary composition of the present invention (0.312% mandelic acid and 0.156% pyruvic acid) and individual short chain fatty acids at the same concentrations.
The anti-tyrosinase activity of an exemplary composition of the present invention was compared to the anti-tyrosinase activity of individual short chain fatty acids. Assays were performed using a tyrosinase inhibitor screening kit from Sigma Aldrich (MAK 257 Kit); and following the manufacturer's protocol. The results of these experiments are described in Table 1 (below).
The anti-tyrosinase activity of an exemplary composition of the present invention was compared to the anti-tyrosinase activity of individual short chain fatty acids. Assays were performed using a tyrosinase inhibitor screening kit from Sigma Aldrich (MAK 257 Kit); and following the manufacturer's protocol. The results of these experiments are described in Table 4 (below).
Peels were diluted 1000× in buffer to prepare 0.1% working stock. The working stock was serially diluted 2× to test the peels at five doses (0.1 wt. %, 0.05 wt. %, 0.025 wt. %, 0.0125 wt. % and 0.00625 wt. %). The pH of all test samples and dilutions was measured before and after tyrosinase assay to exclude any effect of acid on the enzyme activity. The assay was performed using a commercial kit following manufacturer's protocol (e.g., MAK 257 Kit from Sigma Aldrich). LMP peels containing various concentrations of pyruvic acid at pH 2.5 (“R1 Peels”); LMP peels which were identically formulated to the R1 Peels, but with pH buffered to 3.6 (“R2 Peels”); and LMP′ peels which were identically formulated to the R2 Peels, other than the replacement of pyruvic acid with sodium pyruvate (“R3 Peels”), were all evaluated.

Take `CC(O)C(=O)O` (centres unmarked) [Lactic Acid (L), lactic acid]: the “% Collagenase Inhibition” value with collagenase (Table 2, Example 6, 1.25 wt. %) was 40.32%; with collagenase (Table 5, Example 9, 1.25 wt. %) it was 12.71%; in the test with collagenase (Table B, Example 2, 1.25 wt. %), 12.71%. The “% Elastase Inhibition” value at elastase (0.625 wt. %) came to 44.89%. Moreover, the “% Tyrosinase Inhibition” value in the test with tyrosinase (Table 1, Example 5, 0.312 wt. %) is recorded as 52.72%; in the test on tyrosinase (Table 4, Example 8, 0.312 wt. %), 1.23%; in the test on tyrosinase (Table A, Example 1, 0.312 wt. %), 2.23%.
For `O=C(O)C(O)c1ccccc1` (centres unmarked) [Mandelic Acid (M), mandelic acid], the “% Collagenase Inhibition” value is reported as 8.57% in the test with collagenase (Table 5, Example 9, 0.625 wt. %); 8.57% in the test with collagenase (Table B, Example 2, 0.625 wt. %); 11.26% in the test with collagenase (Table D, Example 4, 1.25 wt. %). In addition, the “% Tyrosinase Inhibition” value in the test with tyrosinase (Table 4, Example 8, 0.156 wt. %) stood at 0.06%; with tyrosinase (Table A, Example 1, 0.156 wt. %), 0.06%; in the test on tyrosinase (Table C, Example 3, 0.312 wt. %), 1.17%.
As to `CC(=O)C(=O)O` [Pyruvic Acid (P), pyruvic acid], the “% Collagenase Inhibition” value in the test with collagenase (Table 2, Example 6, 0.312 wt. %) is 8.79%; with collagenase (Table B, Example 2, 0.312 wt. %), 6.70%; in the test on collagenase (Table D, Example 4, 0.625 wt. %) it was 9.58%. The “% Elastase Inhibition” value on elastase (0.156 wt. %) was determined as 20.21%. For the same molecule, the “% Tyrosinase Inhibition” value in the test on tyrosinase (Table 1, Example 5, 0.078 wt. %) stood at 29.29%; with tyrosinase (Table A, Example 1, 0.078 wt. %), 0.37%; in the test on tyrosinase (Table C, Example 3, 0.156 wt. %) it was 26.62%.
